Laboratory results published in patent US9926295B2, “Potent and selective inhibitors of hepatitis C virus” (Cocrystal Pharma, Inc., priority 2014, dated 2018).

Key:
Assay type in all cases: cell-based
[1] = system: HCV Replicon RNA (HCV 1b) in Huh 7 Clone B cells; test: HCV Replicon Assay; conditions: Hepatitis C virus, 120 h, five days incubation
Method: Huh 7 Clone B cells containing HCV Replicon RNA would be seeded in a 96-well plate at 5000 cells/well, and the compounds tested at 10 μM in triplicate immediately after seeding. Following five days incubation (37° C., 5% CO2), total cellular RNA was isolated by using versaGene RNA purification kit from Gentra. Replicon RNA and an internal control (TaqMan rRNA control reagents, Applied Biosystems) were amplified in a single step multiplex Real Time RT-PCR Assay. The antiviral effectiveness of the compounds was calculated by subtracting the threshold RT-PCR cycle of the test compound from the threshold RT-PCR cycle of the no-drug control (ΔCt HCV). A ΔCt of 3.3 equals a 1-log reduction (equal to 90% less starting material) in Replicon RNA levels. The cytotoxicity of the compounds was also calculated by using the ΔCt rRNA values. 2′-C-Me-C was used as the positive control. To determine EC90 and IC50 values^2, ΔCt: values were first converted into fraction of starting material^3 and then were used to calculate the % inhibition.
• 1. Stuyver L et al., Ribonucleoside analogue that blocks replication or bovine viral diarrhea and hepatitis C viruses in culture. Antimicrob. Agents Chemother. 2003, 47, 244-254. • 2. Reed I J & Muench H, A simple method or estimating fifty percent endpoints. Am. J. Hyg. 27: 497, 1938. • 3. Applied Biosystems Handbook Median Effective concentrations (EC50) ranges against HCV 1b are as follow: A=[…] B=100-999 nM C=1-99 nM D=<1 nM

[2] = Cellular toxicity assay in human PBM cells; conditions: read-out: Cytotoxicity (IC50 μM) PBM
Method: (§1) The toxicity of the compounds was assessed in Vero, human PBM, CEM (human lymphoblastoid), MT-2, and HepG2 cells, as described previously (see Schinazi R. F., Sommadossi J.-P., Saalmann V., Cannon D. L., Xie M.-Y., Hart G. C., Smith G. A. & Hahn E. F. Antimicrob. Agents Chemother. 1990, 34, 1061-67). Cycloheximide was included as positive cytotoxic control, and untreated cells exposed to solvent were included as negative controls. The cytotoxicity IC50 was obtained from the concentration-response curve using the median effective method described previously (see Chou T.-C. & Talalay P. Adv. Enzyme Regul. 1984, 22, 27-55; Belen'kii M. S. & Schinazi R. F. Antiviral Res. 1994, 25, 1-11).

[3] = Cellular toxicity assay in CEM cells; conditions: human, CEM (human lymphoblastoid) cells, read-out: Cytotoxicity (IC50 μM) CEM
Method: as §1

[4] = Cellular toxicity assay in Vero cells; conditions: African green monkey, read-out: Cytotoxicity (IC50 μM) Vero
Method: as §1

Structure (SMILES): COC(=O)N[C@H](C(=O)N1CCCC1c1nc(Cl)c(-c2ccc(-c3ccc(-c4cnc([C@@H]5C[C@H]([S+](C)[O-])CN5C(=O)[C@@H](NC(=O)OC)c5ccccc5)[nH]4)cc3)cc2)[nH]1)c1ccccc1 (stereo partly drawn) [Compound 44]
- EC50 ([1]; values in nM): 0.2 nM
- EC90 ([1]; values in nM): 1.1 nM
- IC50 [2]: 89.7 µM
- IC50 [3]: 3.6 µM
- IC50 [4]: > 100 µM

Structure (SMILES): COC(=O)N[C@H](C(=O)N1CCCC1c1ncc(-c2ccc(-c3ccc(-c4[nH]c([C@@H]5C[C@H](SC)CN5C(=O)[C@@H](NC(=O)OC)C(C)C)nc4Cl)cc3)cc2)[nH]1)C(C)C (stereo partly drawn) [Compound 45]
- EC50 ([1]; pM): 0.0163 nM
- EC90 ([1]; pM): 0.0316 nM
- IC50 [2]: 27.2 µM
- IC50 [3]: 5.2 µM
- IC50 [4]: 14.4 µM

Structure (SMILES): COC(=O)N[C@H](C(=O)N1CCCC1c1ncc(-c2ccc(-c3ccc(-c4[nH]c([C@@H]5C[C@H](SC)CN5C(=O)[C@@H](NC(=O)OC)c5ccccc5)nc4Cl)cc3)cc2)[nH]1)c1ccccc1 (stereo partly drawn) [Compound 47]
- EC50 ([1]; pM): 0.004 nM
- EC90 ([1]; pM): 0.0231 nM
- IC50 [2]: > 100 µM
- IC50 [3]: > 100 µM
- IC50 [4]: > 100 µM

Structure (SMILES): COC(=O)N[C@H](C(=O)N1CCCC1c1nc(Cl)c(-c2ccc(-c3ccc(-c4cnc([C@@H]5C[C@H](SC)CN5C(=O)[C@@H](NC(=O)OC)C(C)C)[nH]4)cc3)cc2)[nH]1)C(C)C (stereo partly drawn) [Compound 42]
- EC50 ([1]; pM): 0.0139 nM
- EC90 ([1]; pM): 0.0263 nM
- IC50 [2]: 60 µM
- IC50 [3]: 3.1 µM
- IC50 [4]: 34.5 µM

Structure (SMILES): COC(=O)N[C@H](C(=O)N1CCCC1c1ncc(-c2ccc(-c3ccc(-c4[nH]c([C@@H]5C[C@H]([S+](C)[O-])CN5C(=O)[C@@H](NC(=O)OC)c5ccccc5)nc4Cl)cc3)cc2)[nH]1)c1ccccc1 (stereo partly drawn) [Compound 48]
- EC50 ([1]; values in nM): 0.07 nM
- EC90 ([1]; values in nM): 0.5 nM
- IC50 [2]: 67.6 µM
- IC50 [3]: 1.8 µM
- IC50 [4]: > 100 µM

Structure (SMILES): COC(=O)N[C@H](C(=O)N1CCCC1c1ncc(-c2ccc(-c3ccc(-c4[nH]c([C@@H]5C[C@H]([S+](C)[O-])CN5C(=O)[C@@H](NC(=O)OC)C(C)C)nc4Cl)cc3)cc2)[nH]1)C(C)C (stereo partly drawn) [Compound 46]
- EC50 ([1]; values in nM): 0.06 nM
- EC90 ([1]; values in nM): 0.3 nM
- IC50 [2]: 13.6 µM
- IC50 [3]: 3.7 µM
- IC50 [4]: 45.8 µM

Structure (SMILES): COC(=O)N[C@H](C(=O)N1CCCC1c1nc(Cl)c(-c2ccc(-c3ccc(-c4[nH]c([C@@H]5C[C@H](SC)CN5C(=O)[C@@H](NC(=O)OC)c5ccccc5)nc4Cl)cc3)cc2)[nH]1)c1ccccc1 (stereo partly drawn) [Compound 51]
- EC50 ([1]; pM): 0.0077 nM
- EC90 ([1]; pM): 0.0191 nM
- IC50 [2]: > 100 µM
- IC50 [3]: > 100 µM
- IC50 [4]: > 100 µM

Structure (SMILES): COC(=O)N[C@H](C(=O)N1CCCC1c1nc(Cl)c(-c2ccc(-c3ccc(-c4[nH]c([C@@H]5C[C@H](SC)CN5C(=O)[C@@H](NC(=O)OC)C(C)C)nc4Cl)cc3)cc2)[nH]1)C(C)C (stereo partly drawn) [Compound 49]
- EC50 ([1]; pM): 0.0034 nM
- EC90 ([1]; pM): 0.0699 nM
- IC50 [2]: 24.3 µM
- IC50 [3]: 2.5 µM
- IC50 [4]: > 100 µM

Structure (SMILES): COC(=O)N[C@H](C(=O)N1CCCC1c1nc(Cl)c(-c2ccc(-c3ccc(-c4[nH]c([C@@H]5C[C@H]([S+](C)[O-])CN5C(=O)[C@@H](NC(=O)OC)c5ccccc5)nc4Cl)cc3)cc2)[nH]1)c1ccccc1 (stereo partly drawn) [Compound 52]
- EC50 ([1]; values in nM): 0.06 nM
- EC90 ([1]; values in nM): 0.2 nM
- IC50 [2]: 83.9 µM
- IC50 [3]: 7.1 µM
- IC50 [4]: > 100 µM
